Results reported in patent US7994185B2, “Benzene sulfonamide thiazole and oxazole compounds” (Glaxo Smith Kline LLC, priority 2008, dated 2011).
Like-named read-outs stand apart in the source and are kept apart here.

Assays:
[1] = system: Human colon tumor cells (Colo205); assay: Cell growth inhibition assay (CellTiter-Glo), Colo205; type: cell-based
Experimental: Human colon tumor cells (Colo205) were cultured in RPMI (Mediatech 50-020-PB) containing 10% FBS and 1% penicillin-streptomycin.
The next day, compounds were diluted as follow: For 96-well assays, 13.5 μL of compound in DMSO were diluted using nine (9) serial 1:3 dilutions of 4.5 μL in 9 μL of DMSO. Medium (270 μL/well of RPMI with 10% FBS and 1% penicillin-streptomycin) was added to the plates. Aliquots (7 μL) were added to cells in the final assay giving a final DMSO concentration of 0.2%. For 384-well assays, 15 μL of compound in DMSO were diluted using nine (9) serial 1:3 dilutions of 5 μL in 10 μL of DMSO, followed by a further dilution of 5 μL of compound with 95 μL of medium, of which 2 μL were added to cells in the final assay giving a final DMSO concentration of 0.2%. Cells were incubated at 37° C., 5% CO2 for 3 days.
Total ATP was measured (as a surrogate estimate of cell number) using CellTiter-Glo® reagent (Promega G7571). Briefly, plates were removed from the incubator and allowed to equilibrate to room temperature for 30 minutes. CellTiter-Glo® (25 μL or 55 μL for 384-well or 96-well assays, respectively) reagent was added to each well and plates were shaken on an orbital plate shaker for 2 minutes. Plates were incubated without shaking for a further 30 minutes and read on an LJL Analyst GT reader in luminometer mode with an integration time of 0.5 seconds per well. Percent inhibition of cell growth was calculated relative to DMSO vehicle-treated control wells.

[2] = target: T1, BRAFV600E full-length (amino acids 2-766) (Homo sapiens, UniProt P15056, V600E); assay: B-Raf Accelerated MEK ATPase assay (BRAMA); type: biochemical
T1 construct: His6-tagged BRAFV600E full-length (amino acids 2-766); His6; made in house; host or cells: baculovirus expression system (insect cells)
How it was run: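 Coupled-enzyme readout: ADP generated by MEK-mediated ATP hydrolysis, uncoupled from ERK phosphorylation, is linked to NADH oxidation through pyruvate kinase and lactate dehydrogenase.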

[3] = system: Human melanoma cancer cells (SK-MEL-28); assay: Cell growth inhibition assay (CellTiter-Glo), SK-MEL-28; type: cell-based
[4] = COLO 205, 72 h, Table 2a, 3 days incubation, read-out: Activity in Colo205 Tumor Cells
[5] = COLO 205, Table 2b, later runs, average for the one or more runs, categorized, read-out: IC50 for Colo205
[6] = B-Raf Activity, Table 1a, highest pIC50 for the one or more runs, categorized
[7] = Table 1b, later runs, average pIC50 for the one or more runs, categorized, read-out: B-Raf pIC50 (converted)
[8] = SK-MEL-28, 72 h, Table 3a, 3 days incubation, read-out: Activity in SK-MEL-28 Tumor Cells
[9] = SK-MEL-28, Table 3b, later runs, average for the one or more runs, categorized, read-out: IC50 for SK-MEL-28
[10] = B-Raf pIC50, Table 1b, later runs, average pIC50 for the one or more runs, categorized

T1 sequence (P15056 2-766 V600E): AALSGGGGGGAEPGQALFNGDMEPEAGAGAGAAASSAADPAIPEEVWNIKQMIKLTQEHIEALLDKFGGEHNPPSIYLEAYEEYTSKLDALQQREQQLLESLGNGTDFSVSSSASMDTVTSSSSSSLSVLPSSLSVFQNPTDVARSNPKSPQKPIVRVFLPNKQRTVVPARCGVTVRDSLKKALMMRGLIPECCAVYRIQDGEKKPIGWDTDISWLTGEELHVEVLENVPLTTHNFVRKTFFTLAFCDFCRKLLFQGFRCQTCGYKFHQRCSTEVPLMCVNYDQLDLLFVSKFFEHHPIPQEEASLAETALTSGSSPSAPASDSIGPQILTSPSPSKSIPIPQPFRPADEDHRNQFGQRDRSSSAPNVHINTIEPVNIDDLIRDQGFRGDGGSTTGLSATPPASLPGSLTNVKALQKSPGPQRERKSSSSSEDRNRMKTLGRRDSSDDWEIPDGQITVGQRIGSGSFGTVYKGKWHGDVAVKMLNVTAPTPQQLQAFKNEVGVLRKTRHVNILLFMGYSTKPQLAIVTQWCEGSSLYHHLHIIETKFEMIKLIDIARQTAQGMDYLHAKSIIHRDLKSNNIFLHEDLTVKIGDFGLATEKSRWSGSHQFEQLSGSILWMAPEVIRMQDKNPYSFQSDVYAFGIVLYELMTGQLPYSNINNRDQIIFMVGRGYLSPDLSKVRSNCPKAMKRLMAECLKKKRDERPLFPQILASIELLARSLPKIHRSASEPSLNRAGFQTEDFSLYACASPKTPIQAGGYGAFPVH

| SMILES | IC50 [1, 4] | IC50 [1, 5] | IC50 [2, 6] | IC50 [2, 7] | IC50 [3, 8] | IC50 [3, 9] | IC50 [2, 10] | IC50 [2] |
| --- | --- | --- | --- | --- | --- | --- | --- | --- |
| CCCNc1nccc(-c2sc(C(C)C)nc2-c2ccc(F)c(NS(=O)(=O)c3cc(F)ccc3F)c2)n1 [Example 120] | 100 to 1000 nM | 100 to 1000 nM | < 100 nM | 3.16 to 31.6 nM | 100 to 1000 nM | 100 to 1000 nM |  |  |
| CC(C)c1nc(-c2ccc(F)c(NS(=O)(=O)c3c(F)cccc3F)c2)c(-c2ccnc(NCCCCN(C)C)n2)s1 [Example 167] | 100 to 1000 nM | 100 to 1000 nM |  |  | > 1000 nM | 1000 to 10000 nM | 31.6 to 1000 nM |  |
| CC(C)c1nc(-c2ccc(F)c(NS(=O)(=O)c3c(F)cccc3F)c2)c(-c2ccnc(NCCN3CCCC3)n2)s1 [Example 164] | > 1000 nM | 1000 to 10000 nM |  |  | > 1000 nM | 1000 to 10000 nM |  | > 1000 nM |
| CC(C)(O)CCc1nccc(-c2sc(C(C)(C)C)nc2-c2cccc(NS(=O)(=O)c3c(F)cccc3F)c2F)n1 [Example 249, N-(3-{2-(1,1-dimethylethyl)-5-[2-(3-hydroxy-3-methylbutyl)-4-pyrimidinyl]-1,3-thiazol-4-yl}-2-fluorophenyl)-2,6-difluorobenzenesulfonamide] |  | < 100 nM |  | 3.16 to 31.6 nM |  | < 100 nM |  |  |
| COc1c(NS(=O)(=O)c2c(F)cccc2F)cccc1-c1nc(C(C)C)sc1-c1ccnc(NCC(C)C)n1 [Example 44, 2,6-Difluoro-N-[3-(2-(1-methylethyl)-5-{2-[(2-methylpropyl)amino]-4-pyrimidinyl}-1,3-thiazol-4-yl)-2-(methyloxy)phenyl]benzenesulfonamide] | > 1000 nM | 1000 to 10000 nM | < 100 nM | 3.16 to 31.6 nM | > 1000 nM | 1000 to 10000 nM |  |  |
| O=C1CCCN1CCCNc1nccc(-c2sc(N3CCOCC3)nc2-c2cccc(NS(=O)(=O)c3cc(F)ccc3F)c2F)n1 [Example 188] | < 100 nM | < 100 nM | < 100 nM |  | < 100 nM | < 100 nM | ≤ 3.16 nM |  |
| Nc1nccc(-c2sc(C3CCOCC3)nc2-c2cccc(NS(=O)(=O)c3c(F)cccc3F)c2Cl)n1 [Example 238, N-{3-[5-(2-amino-4-pyrimidinyl)-2-(tetrahydro-2H-pyran-4-yl)-1,3-thiazol-4-yl]-2-chlorophenyl}-2,6-difluorobenzenesulfonamide] |  | < 100 nM |  |  |  | < 100 nM | ≤ 3.16 nM |  |
| CC(C)Nc1nccc(-c2sc(C(C)C)nc2-c2cccc(NS(=O)(=O)c3cccc(F)c3)c2)n1 [Example 158] | > 1000 nM | 1000 to 10000 nM | < 100 nM |  | > 1000 nM | 1000 to 10000 nM | 31.6 to 1000 nM |  |
| O=S(=O)(Nc1cccc(-c2nc(C3CCOCC3)sc2-c2ccncn2)c1F)c1cc(F)ccc1F [Example 244, 2,5-difluoro-N-{2-fluoro-3-[5-(4-pyrimidinyl)-2-(tetrahydro-2H-pyran-4-yl)-1,3-thiazol-4-yl]phenyl}benzenesulfonamide] |  | < 100 nM |  |  |  | < 100 nM | ≤ 3.16 nM |  |
| CC(C)CNc1nccc(-c2sc(C(C)C)nc2-c2cccc(NS(=O)(=O)c3cccnc3)c2F)n1 [Example 42, N-[2-Fluoro-3-(2-(1-methylethyl)-5-{2-[(2-methylpropyl)amino]-4-pyrimidinyl}-1,3-thiazol-4-yl)phenyl]-3-pyridinesulfonamide] | < 100 nM | < 100 nM | < 100 nM |  | < 100 nM | < 100 nM | ≤ 3.16 nM |  |
| CC(C)(C)c1nc(-c2cccc(NS(=O)(=O)c3cccs3)c2F)c(-c2ccnc(N)n2)s1 [Example 232, N-{3-[5-(2-amino-4-pyrimidinyl)-2-(1,1-dimethylethyl)-1,3-thiazol-4-yl]-2-fluorophenyl}-2-thiophenesulfonamide] |  | < 100 nM |  |  |  | < 100 nM | ≤ 3.16 nM |  |
| CS(=O)(=O)N1CCN(c2nc(-c3cccc(NS(=O)(=O)c4cc(F)ccc4F)c3F)c(-c3ccnc(N)n3)s2)CC1 [Example 99, N-(3-{5-(2-Amino-4-pyrimidinyl)-2-[4-(methylsulfonyl)-1-piperazinyl]-1,3-thiazol-4-yl}-2-fluorophenyl)-2,5-difluorobenzenesulfonamide] | 100 to 1000 nM | 100 to 1000 nM | < 100 nM |  | 100 to 1000 nM | 100 to 1000 nM | ≤ 3.16 nM |  |
| Nc1nccc(-c2sc(N3CCOCC3)nc2-c2cccc(NS(=O)(=O)c3c(F)cccc3F)c2Cl)n1 [Example 21, N-{3-[5-(2-Amino-4-pyrimidinyl)-2-(4-morpholinyl)-1,3-thiazol-4-yl]-2-chlorophenyl}-2,6-difluorobenzenesulfonamide] | 100 to 1000 nM | 100 to 1000 nM | < 100 nM |  | 100 to 1000 nM | 100 to 1000 nM | ≤ 3.16 nM |  |
| CC(C)(C)c1nc(-c2cccc(NS(=O)(=O)c3cc(F)ccc3F)c2Cl)c(-c2ccncn2)s1 [Example 228, N-{2-chloro-3-[2-(1,1-dimethylethyl)-5-(4-pyrimidinyl)-1,3-thiazol-4-yl]phenyl}-2,5-difluorobenzenesulfonamide] |  | < 100 nM |  |  |  | < 100 nM | ≤ 3.16 nM |  |
| CC(C)c1nc(-c2ccc(F)c(NS(=O)(=O)c3cn(C)cn3)c2)c(-c2ccnc(NCCCS(C)(=O)=O)n2)s1 [Example 36, N-{2-Fluoro-5-[2-(1-methylethyl)-5-(2-{[3-(methylsulfonyl)propyl]amino}-4-pyrimidinyl)-1,3-thiazol-4-yl]phenyl}-1-methyl-1H-imidazole-4-sulfonamide] | > 1000 nM |  | 100 to 1000 nM |  | > 1000 nM |  | 31.6 to 1000 nM |  |
| Cc1nccc(-c2sc(C(C)(C)C)nc2-c2cccc(NS(=O)(=O)c3c(F)cccc3F)c2Cl)n1 [Example 239, N-{2-chloro-3-[2-(1,1-dimethylethyl)-5-(2-methyl-4-pyrimidinyl)-1,3-thiazol-4-yl]phenyl}-2,6-difluorobenzenesulfonamide] |  | < 100 nM |  | 3.16 to 31.6 nM |  | < 100 nM |  |  |
| CC(C)c1nc(-c2ccc(F)c(NS(=O)(=O)c3c(F)cccc3F)c2)c(-c2ccnc(NCCO)n2)s1 [Example 160] | 100 to 1000 nM | 100 to 1000 nM | 100 to 1000 nM |  | 100 to 1000 nM | 100 to 1000 nM | 31.6 to 1000 nM |  |
| Nc1nccc(-c2sc(N3CCOCC3)nc2-c2c(F)ccc(NS(=O)(=O)c3c(F)cccc3F)c2F)n1 [Example 106, N-{3-[5-(2-Amino-4-pyrimidinyl)-2-(4-morpholinyl)-1,3-thiazol-4-yl]-2,4-difluorophenyl}-2,6-difluorobenzenesulfonamide] | 100 to 1000 nM | 100 to 1000 nM | < 100 nM | 3.16 to 31.6 nM | 100 to 1000 nM | 100 to 1000 nM |  |  |
| CC(C)CNc1nccc(-c2sc(N3CCOCC3)nc2-c2cccc(NS(=O)(=O)c3c(F)cccc3F)c2Cl)n1 [Example 20, N-{2-Chloro-3-[5-{2-[(2-methylpropyl)amino]-4-pyrimidinyl}-2-(4-morpholinyl)-1,3-thiazol-4-yl]phenyl}-2,6-difluorobenzenesulfonamide] | < 100 nM | < 100 nM | < 100 nM |  | < 100 nM | < 100 nM | ≤ 3.16 nM |  |
| Nc1nccc(-c2sc(N3CCOCC3)nc2-c2cccc(NS(=O)(=O)c3ccoc3)c2Cl)n1 [Example 266, N-{3-[5-(2-amino-4-pyrimidinyl)-2-(4-morpholinyl)-1,3-thiazol-4-yl]-2-chlorophenyl}-3-furansulfonamide] |  | < 100 nM |  |  |  | < 100 nM | ≤ 3.16 nM |  |
| CC(C)c1nc(-c2ccc(F)c(NS(=O)(=O)C3CC3)c2)c(-c2ccnc(NCCS(C)(=O)=O)n2)s1 [Example 55, N-{2-fluoro-5-[2-(1-methylethyl)-5-(2-{[2-(methylsulfonyl)ethyl]amino}-4-pyrimidinyl)-1,3-thiazol-4-yl]phenyl}cyclopropanesulfonamide] | 100 to 1000 nM | 100 to 1000 nM | 100 to 1000 nM |  | > 1000 nM | 1000 to 10000 nM | 31.6 to 1000 nM |  |
| COc1ccc(F)cc1S(=O)(=O)Nc1cccc(-c2nc(C(C)C)sc2-c2ccnc(NC3CCN(S(C)(=O)=O)CC3)n2)c1F [Example 153] | < 100 nM | < 100 nM | < 100 nM | 3.16 to 31.6 nM | < 100 nM | < 100 nM |  |  |
